Measured values reported in PubChem BioAssay (NCI).
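Compound exposure: 48 hours, 5 concentrations, 96-well plates. TGI marks complete inhibition of growth.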

Tests used:
Test in all cases: NCI anticancer screen, dose series, 48 h
HT29 colon = test system: HT29 colon
NCI/ADR-RES ovarian = test system: NCI/ADR-RES ovarian
UO-31 renal = test system: UO-31 renal
T-47D breast = test system: T-47D breast
SK-MEL-5 melanoma = test system: SK-MEL-5 melanoma
MALME-3M melanoma = test system: MALME-3M melanoma
SF-295 CNS = test system: SF-295 CNS
M14 melanoma = test system: M14 melanoma
786-0 renal = test system: 786-0 renal
SK-MEL-2 melanoma = test system: SK-MEL-2 melanoma
MCF7 breast = test system: MCF7 breast
SK-MEL-28 melanoma = test system: SK-MEL-28 melanoma
ACHN renal = test system: ACHN renal
A498 renal = test system: A498 renal
MDA-N = test system: MDA-N
HCC-2998 colon = test system: HCC-2998 colon
SR leukemia = test system: SR leukemia
PC-3 prostate = test system: PC-3 prostate
OVCAR-5 ovarian = test system: OVCAR-5 ovarian
NCI-H460 lung = test system: NCI-H460 lung
EKVX NSCLC = test system: EKVX NSCLC
OVCAR-4 ovarian = test system: OVCAR-4 ovarian
HCT-15 colon = test system: HCT-15 colon
SN12C renal = test system: SN12C renal
A549 NSCLC = test system: A549 NSCLC
OVCAR-3 ovarian = test system: OVCAR-3 ovarian
HS 578T breast = test system: HS 578T breast
BT-549 breast = test system: BT-549 breast
IGROV1 ovarian = test system: IGROV1 ovarian
DU-145 prostate = test system: DU-145 prostate
K-562 leukemia = test system: K-562 leukemia
KM12 colon = test system: KM12 colon
LOX IMVI melanoma = test system: LOX IMVI melanoma
OVCAR-8 ovarian = test system: OVCAR-8 ovarian
SW-620 colon = test system: SW-620 colon
NCI-H522 lung = test system: NCI-H522 lung
HL-60(TB) leukemia = test system: HL-60(TB) leukemia
MDA-MB-231 breast = test system: MDA-MB-231 breast
SF-539 CNS = test system: SF-539 CNS
HOP-62 NSCLC = test system: HOP-62 NSCLC
NCI-H23 lung = test system: NCI-H23 lung
COLO 205 colon = test system: COLO 205 colon
MDA-MB-435 = test system: MDA-MB-435
SNB-19 CNS = test system: SNB-19 CNS
UACC-257 melanoma = test system: UACC-257 melanoma
UACC-62 melanoma = test system: UACC-62 melanoma
MOLT-4 leukemia = test system: MOLT-4 leukemia
RPMI-8226 leukemia = test system: RPMI-8226 leukemia
U251 CNS = test system: U251 CNS
TK-10 renal = test system: TK-10 renal
HCT-116 colon = test system: HCT-116 colon
RXF 393 renal = test system: RXF 393 renal
CAKI-1 renal = test system: CAKI-1 renal
HOP-92 NSCLC = test system: HOP-92 NSCLC
SK-OV-3 ovarian = test system: SK-OV-3 ovarian
CCRF-CEM leukemia = test system: CCRF-CEM leukemia
NCI-H226 lung = test system: NCI-H226 lung
SF-268 CNS = test system: SF-268 CNS

With Cc1cc(S(=O)(=O)Nc2nnc3ccccn23)c(S)cc1Cl as the molecule, how does the TGI (HT29 colon) read?
Its TGI is > 100 µM.

What about the TGI (NCI/ADR-RES ovarian) of the same molecule?
Its TGI is > 100 µM.

What about the TGI (UO-31 renal) of the same molecule?
Its TGI is > 100 µM.

What about the TGI (T-47D breast) of the same molecule?
The TGI was > 100 µM.

What about the TGI (SK-MEL-5 melanoma) of the same molecule?
Its TGI is > 100 µM.

And the TGI (MALME-3M melanoma)?
The TGI was > 100 µM.

And the TGI (SF-295 CNS)?
Its TGI is 64.8 µM.

And the TGI (M14 melanoma)?
Its TGI is > 100 µM.

What about the TGI (786-0 renal) of the same molecule?
Its TGI is > 100 µM.

What about the TGI (SK-MEL-2 melanoma) of the same molecule?
Its TGI is > 100 µM.

And the TGI (MCF7 breast)?
Its TGI is > 100 µM.

And the TGI (SK-MEL-28 melanoma)?
The TGI was > 100 µM.

What about the TGI (ACHN renal) of the same molecule?
The TGI was > 100 µM.

What about the TGI (A498 renal) of the same molecule?
Its TGI is > 100 µM.

And the TGI (MDA-N)?
Its TGI is > 100 µM.

And the TGI (HCC-2998 colon)?
Its TGI is > 100 µM.

What about the TGI (SR leukemia) of the same molecule?
Its TGI is > 100 µM.

What about the TGI (PC-3 prostate) of the same molecule?
Its TGI is > 100 µM.

And the TGI (OVCAR-5 ovarian)?
The TGI was > 100 µM.

What about the TGI (NCI-H460 lung) of the same molecule?
The TGI was > 100 µM.

And the TGI (EKVX NSCLC)?
The TGI was > 100 µM.

And the TGI (OVCAR-4 ovarian)?
The TGI was > 100 µM.

And the TGI (HCT-15 colon)?
The TGI was > 100 µM.

And the TGI (SN12C renal)?
The TGI was > 100 µM.

And the TGI (A549 NSCLC)?
Its TGI is > 100 µM.

What about the TGI (OVCAR-3 ovarian) of the same molecule?
The TGI was > 100 µM.

And the TGI (HS 578T breast)?
The TGI was > 100 µM.

And the TGI (BT-549 breast)?
Its TGI is > 100 µM.

And the TGI (IGROV1 ovarian)?
Its TGI is > 100 µM.

What about the TGI (DU-145 prostate) of the same molecule?
The TGI was > 100 µM.

What about the TGI (K-562 leukemia) of the same molecule?
Its TGI is > 100 µM.

And the TGI (KM12 colon)?
Its TGI is > 100 µM.

And the TGI (LOX IMVI melanoma)?
The TGI was > 100 µM.

What about the TGI (OVCAR-8 ovarian) of the same molecule?
Its TGI is > 100 µM.

And the TGI (SW-620 colon)?
Its TGI is > 100 µM.

What about the TGI (NCI-H522 lung) of the same molecule?
The TGI was > 100 µM.

What about the TGI (HL-60(TB) leukemia) of the same molecule?
Its TGI is > 100 µM.

And the TGI (MDA-MB-231 breast)?
The TGI was > 100 µM.

What about the TGI (SF-539 CNS) of the same molecule?
The TGI was > 100 µM.

What about the TGI (HOP-62 NSCLC) of the same molecule?
Its TGI is > 100 µM.

What about the TGI (NCI-H23 lung) of the same molecule?
The TGI was > 100 µM.

And the TGI (COLO 205 colon)?
The TGI was > 100 µM.

And the TGI (MDA-MB-435)?
The TGI was > 100 µM.

What about the TGI (SNB-19 CNS) of the same molecule?
Its TGI is > 100 µM.

And the TGI (UACC-257 melanoma)?
The TGI was > 100 µM.

And the TGI (UACC-62 melanoma)?
Its TGI is > 100 µM.

What about the TGI (MOLT-4 leukemia) of the same molecule?
Its TGI is > 100 µM.

What about the TGI (RPMI-8226 leukemia) of the same molecule?
The TGI was > 100 µM.

What about the TGI (U251 CNS) of the same molecule?
Its TGI is > 100 µM.

And the TGI (TK-10 renal)?
The TGI was > 100 µM.

What about the TGI (HCT-116 colon) of the same molecule?
Its TGI is > 100 µM.

With OCCCCn1cc(Cn2ncc3c(NCc4ccccc4)ncnc32)nn1 as the molecule, how does the TGI (HT29 colon) read?
The TGI was > 100 µM.

And the TGI (NCI/ADR-RES ovarian)?
Its TGI is > 100 µM.

And the TGI (UO-31 renal)?
Its TGI is > 100 µM.

And the TGI (RXF 393 renal)?
Its TGI is > 100 µM.

And the TGI (T-47D breast)?
Its TGI is > 100 µM.

What about the TGI (SK-MEL-5 melanoma) of the same molecule?
The TGI was > 100 µM.

What about the TGI (MALME-3M melanoma) of the same molecule?
The TGI was > 100 µM.

And the TGI (SF-295 CNS)?
The TGI was > 100 µM.

And the TGI (M14 melanoma)?
The TGI was > 100 µM.

What about the TGI (786-0 renal) of the same molecule?
The TGI was > 100 µM.

And the TGI (SK-MEL-2 melanoma)?
Its TGI is > 100 µM.

What about the TGI (MCF7 breast) of the same molecule?
Its TGI is > 100 µM.

And the TGI (SK-MEL-28 melanoma)?
The TGI was > 100 µM.

And the TGI (ACHN renal)?
Its TGI is > 100 µM.

What about the TGI (A498 renal) of the same molecule?
The TGI was > 100 µM.

What about the TGI (MDA-N) of the same molecule?
The TGI was > 100 µM.

What about the TGI (HCC-2998 colon) of the same molecule?
Its TGI is > 100 µM.

What about the TGI (SR leukemia) of the same molecule?
Its TGI is > 100 µM.

And the TGI (PC-3 prostate)?
The TGI was > 100 µM.

What about the TGI (OVCAR-5 ovarian) of the same molecule?
Its TGI is > 100 µM.

And the TGI (NCI-H460 lung)?
Its TGI is > 100 µM.

And the TGI (EKVX NSCLC)?
Its TGI is > 100 µM.

What about the TGI (CAKI-1 renal) of the same molecule?
Its TGI is > 100 µM.

And the TGI (OVCAR-4 ovarian)?
The TGI was > 100 µM.

And the TGI (HCT-15 colon)?
Its TGI is > 100 µM.

What about the TGI (SN12C renal) of the same molecule?
Its TGI is > 100 µM.

And the TGI (A549 NSCLC)?
The TGI was > 100 µM.

And the TGI (HOP-92 NSCLC)?
The TGI was > 100 µM.

And the TGI (SK-OV-3 ovarian)?
The TGI was > 100 µM.

And the TGI (OVCAR-3 ovarian)?
Its TGI is > 100 µM.

What about the TGI (HS 578T breast) of the same molecule?
The TGI was > 100 µM.

And the TGI (BT-549 breast)?
Its TGI is > 100 µM.

What about the TGI (IGROV1 ovarian) of the same molecule?
Its TGI is > 100 µM.

What about the TGI (DU-145 prostate) of the same molecule?
The TGI was > 100 µM.

And the TGI (K-562 leukemia)?
Its TGI is > 100 µM.

And the TGI (KM12 colon)?
Its TGI is > 100 µM.

And the TGI (LOX IMVI melanoma)?
The TGI was > 100 µM.

What about the TGI (CCRF-CEM leukemia) of the same molecule?
Its TGI is > 100 µM.

What about the TGI (OVCAR-8 ovarian) of the same molecule?
Its TGI is > 100 µM.

What about the TGI (SW-620 colon) of the same molecule?
The TGI was > 100 µM.

And the TGI (NCI-H522 lung)?
The TGI was > 100 µM.

What about the TGI (MDA-MB-231 breast) of the same molecule?
The TGI was > 100 µM.

What about the TGI (SF-539 CNS) of the same molecule?
The TGI was > 100 µM.

And the TGI (HOP-62 NSCLC)?
Its TGI is > 100 µM.

What about the TGI (NCI-H23 lung) of the same molecule?
The TGI was > 100 µM.

What about the TGI (COLO 205 colon) of the same molecule?
The TGI was > 100 µM.

And the TGI (NCI-H226 lung)?
Its TGI is > 100 µM.

What about the TGI (MDA-MB-435) of the same molecule?
Its TGI is > 100 µM.

And the TGI (SNB-19 CNS)?
The TGI was > 100 µM.

And the TGI (UACC-257 melanoma)?
The TGI was > 100 µM.

And the TGI (UACC-62 melanoma)?
Its TGI is > 100 µM.

What about the TGI (MOLT-4 leukemia) of the same molecule?
Its TGI is > 100 µM.

What about the TGI (SF-268 CNS) of the same molecule?
The TGI was > 100 µM.

And the TGI (RPMI-8226 leukemia)?
The TGI was > 100 µM.

And the TGI (U251 CNS)?
Its TGI is > 100 µM.

And the TGI (TK-10 renal)?
Its TGI is > 100 µM.

What about the TGI (HCT-116 colon) of the same molecule?
Its TGI is > 100 µM.
